Results published in US10174020B2, “Pyridone or pyrimidone derivative, preparation method therefor and application thereof” (Sichuan Haisco Pharmaceutical Co., Ltd., priority 2014, dated 2019).

What was measured:
human plasma = test: In vitro assay of the blood coagulation function of human plasma (APTT); format: biochemical; conditions: concentration required to double the plasma APTT, read-out: aPTT EC2×
Protocol: 20 ml blood was taken by venipuncture from the ulnar vein of each of 20 healthy volunteers aged 25 to 35 years who had not taken any medicines within last one week, and was collected in a sodium citrate anticoagulation tube, with the ratio of anticoagulant to blood being 1:9 (v/v). Anticoagulation blood was taken and centrifuged at 200 g for 15 min, the supernatant therefrom was taken and centrifuged at 2000 g for 15 min, and then the supernatant therefrom was collected, well mixed, separated into 4 to 5 ml aliquots, and stored at −80° C. For APTT and PT assays, a plasma sample was taken and rapidly thawed in a 37° C. water bath, and 6 μl test compound working solution was added per 294 μl plasma, while 6 μl DMSO was added for the blank control. The compounds and plasma were well mixed, and assayed in a coagulometer. The concentration of the compounds (EC2×) required to double the plasma APTT was determined with origin 8.5, and the results are shown in Table 2.

[1] = target: human blood-coagulation factor XIa (Homo sapiens (Human), UniProt P03951); test: In vitro inhibitory effect on the enzymatic activity of blood-coagulation factor XIa (S2366 substrate, absorbance at 405 nm); format: biochemical; conditions: calculated from IC50 at substrate S2366 200 μM, Km=0.2 mM; IC50=Ki(1+[S]/Km)
Chain of human blood-coagulation factor XIa (P03951 388-625): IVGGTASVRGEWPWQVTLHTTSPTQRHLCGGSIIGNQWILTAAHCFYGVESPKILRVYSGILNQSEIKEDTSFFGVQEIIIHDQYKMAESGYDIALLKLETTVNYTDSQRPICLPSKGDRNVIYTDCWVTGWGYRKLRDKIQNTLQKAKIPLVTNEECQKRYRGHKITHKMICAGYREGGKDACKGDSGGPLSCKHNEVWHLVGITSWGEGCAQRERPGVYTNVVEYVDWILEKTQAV
Chain of human blood-coagulation factor XIa (P03951 19-387 partner): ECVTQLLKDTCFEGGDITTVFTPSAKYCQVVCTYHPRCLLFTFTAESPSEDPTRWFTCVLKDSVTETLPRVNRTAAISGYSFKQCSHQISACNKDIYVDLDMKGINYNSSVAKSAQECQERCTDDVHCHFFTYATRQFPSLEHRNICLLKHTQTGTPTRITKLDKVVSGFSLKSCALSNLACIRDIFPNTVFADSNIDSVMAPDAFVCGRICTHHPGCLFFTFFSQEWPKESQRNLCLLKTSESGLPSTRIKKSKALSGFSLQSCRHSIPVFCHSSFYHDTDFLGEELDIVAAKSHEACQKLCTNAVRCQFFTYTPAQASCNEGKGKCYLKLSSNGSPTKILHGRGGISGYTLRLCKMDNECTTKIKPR
Protocol: The following method was used to test the in vitro inhibitory effect of the compounds of the present invention on the activity of human blood-coagulation factor XIa, expressed by the Inhibition constant Ki.
Solution preparation: reaction buffer: 0.03M HEPES acid, 0.145M NaCl, 0.005 M KCl, 0.1% PEG-8000, pH=7.5;
HEPES 8.499 g, NaCl 8.47 g, KCl 0.3725, PEG 8000 1 g, plus ddH2O 800 ml; the pH was adjusted to […] with HCl, and the volume was metered to 1 L.
S2366 substrate stock solution (2 mM): a volume of substrate […] was dissolved in 23 ml sterile deionized water, aliquoted, and stored at 4° C. in darkness.
S2366 substrate working solution: the stock solution was diluted by 4 folds with the reaction buffer before use.
FXIa working solution: 1 μl FXIa stock solution was added to 10 ml reaction buffer and thoroughly mixed before use.
Method: 15 μl test sample working solution (15 μl DMSO for the control group) and 75 μl FXIa working solution were added to a 96-well plate, and incubated at room temperature for 15 min. Then 60 μl S2366 substrate working solution was added to initiate the reaction. The absorbance at 405 nm for the test compounds was continually assayed once every 3 minutes, and a ΔA-time curve was plotted to calculate the slope as the reaction rate. In accordance with the following equation, IC50 of each test sample when the substrate concentration was 200 μM was calculated with spss 16.0. Inhibition (I %) and Ki of the test samples were calculated in accordance with the follow equations, and the results are shown in Table 1. I %=(V0−Vi)/V0×100 where V0 is the reaction rate in the control wells, and Vi is the reaction rate in the test sample wells; IC50=Ki(1+[S]/Km) where Km=0.2 mM, and [S] is the substrate concentration=200 μM.

| SMILES | Ki [1] | EC50 (human plasma) |
| --- | --- | --- |
| O=C(O)c1cc2cc(NC(=O)[C@@H]3CCc4cc(-c5cc(Cl)ccc5-n5cnnn5)cc(=O)n43)ccc2[nH]1 (single isomer, unassigned) [Compound 8-1] | 2 nM | 2300 nM |
| O=C(O)c1cc2cc(NC(=O)[C@H]3CCc4cc(-c5cc(Cl)ccc5-n5cnnn5)cc(=O)n43)ccc2[nH]1 (single isomer, unassigned) [Compound 8-2] | 1030 nM |  |
| O=C(O)c1cc2cc(NC(=O)C3CCc4cc(-c5cc(Cl)ccc5-n5cnnn5)cc(=O)n43)ccc2[nH]1 (stereo not shown) [Compound 3, N-(2-carboxyindol-5-yl)-7-(5-chloro-2-(1H-tetrazol-1-yl)phenyl)-5-oxo-1,2,3,5-tetrahydroindolizine-3-carboxamide] | 9 nM | 6100 nM |
| O=C(Cn1ccc(-c2cc(Cl)ccc2-n2cnnn2)cc1=O)Nc1ccc(C(=O)O)cc1 [Compound 5] | 146 nM |  |
| O=C(O)c1cc2cc(NC(=O)C(Cc3ccccc3)n3ccc(-c4cc(Cl)ccc4-n4cnnn4)cc3=O)ccc2[nH]1 (stereo not shown) [Compound 9, 5-[[2-[4-[5-chloro-2-(tetrazol-1-yl)phenyl]-2-oxo-1-pyridyl]-3-phenyl-propanoyl]amino]-1H-indole-2-carboxylic Acid] | 4 nM | 6400 nM |

Second part, led by results:

| Ki [1] | SMILES | EC50 (human plasma) |
| --- | --- | --- |
| 249 nM | O=C(O)c1ccc(NC(=O)C2CCc3nc(-c4cc(Cl)ccc4-n4cnnn4)cc(=O)n32)cc1 (stereo not shown) [Compound 1, N-(4-carboxyphenyl)-2-(5-chloro-2-(1H-tetrazol-1-yl)phenyl)-4-oxo-4,6,7,8-tetrahydropyrrolo[1,2-a]pyrimidine-6-carboxamide] |  |
| 68 nM | O=C(O)c1ccc(NC(=O)C2CCc3cc(-c4cc(Cl)ccc4-n4cnnn4)cc(=O)n32)cc1 (stereo not shown) [Compound 2, N-(4-carboxyphenyl)-7-(5-chloro-2-(1H-tetrazol-1-yl)phenyl)-5-oxo-1,2,3,5-tetrahydroindolizine-3-carboxamide] |  |
| 17 nM | O=C(O)c1cc2cc(NC(=O)C3CCc4nc(-c5cc(Cl)ccc5-n5cnnn5)cc(=O)n43)ccc2[nH]1 (stereo not shown) [Compound 4, N-(2-carboxyindol-5-yl)-2-(5-chloro-2-(1H-tetrazol-1-yl)phenyl)-4-oxo-4,6,7,8-tetrahydropyrrolo[1,2-a]pyrimidine-6-carboxamide] | 9500 nM |
| 14 nM | O=C(Cn1ccc(-c2cc(Cl)ccc2-n2cnnn2)cc1=O)Nc1ccc2[nH]c(C(=O)O)cc2c1 [Compound 6] |  |
